# From the supplement of paper PMC11368000
# Columns and labels:
# Settings in all cases: exposure time: 90 min
# 1083 = donor line of iPSC-derived cardiomyocytes; assay: POD (EC05) for decrease in beat frequency (negative chronotrope) vs vehicle; higher = less potent (higher point of departure)
# Method: (§1)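 Human iPSC-derived cardiomyocytes from 16 donors were exposed for 90 min at 37 °C to each PFAS at 0.1, 1, 10 and 100 µM in 0.5% DMSO, 384-well plates. Kinetic Ca2+ flux (FLIPR) and Hoechst nuclei counts were normalised to vehicle wells and fitted with a hierarchical Bayesian Hill model to give donor-specific PODs: EC05 for beat-rate increase or decrease and for decay-to-rise ratio increase (QT proxy), EC95 for peak-frequency loss (asystole), EC10 for total cell number loss. 0.03 µM is the lower bound.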
# 1118 = donor line of iPSC-derived cardiomyocytes; assay: as above
# Method: as §1
# 11235 = donor line of iPSC-derived cardiomyocytes; assay: as above
# Method: as §1
# 1309 = donor line of iPSC-derived cardiomyocytes; assay: as above
# Method: as §1
# 1368 = donor line of iPSC-derived cardiomyocytes; assay: as above
# Method: as §1
# 1392 = donor line of iPSC-derived cardiomyocytes; assay: as above
# Method: as §1
# 1434 = donor line of iPSC-derived cardiomyocytes; assay: as above
# Method: as §1
# 1516 [1] = donor line of iPSC-derived cardiomyocytes; assay: as above
# Method: as §1
# 1518 [2] = donor line of iPSC-derived cardiomyocytes; assay: as above
# Method: as §1
# 1531 [3] = donor line of iPSC-derived cardiomyocytes; assay: as above
# Method: as §1
# 1535 = donor line of iPSC-derived cardiomyocytes; assay: as above
# Method: as §1
# 1565 = donor line of iPSC-derived cardiomyocytes; assay: as above
# Method: as §1
# 20032 = donor line of iPSC-derived cardiomyocytes; assay: as above
# Method: as §1
# 20084 = donor line of iPSC-derived cardiomyocytes; assay: as above
# Method: as §1
# 30145 [4] = donor line of iPSC-derived cardiomyocytes; assay: as above
# Method: as §1
# 30171 = donor line of iPSC-derived cardiomyocytes; assay: as above
# Method: as §1
# 30145 [5] = assay: POD (EC05) for increase in beat frequency (positive chronotrope) vs vehicle; higher = less potent (higher point of departure)
# In short: (§2)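 Human iPSC-derived cardiomyocytes from 16 donors were cultured 14 days in gelatin-coated 384-well plates and loaded 2 h with fluorescent Ca2+ dye. They were then exposed for 90 min at 37 °C to 0.1, 1, 10 and 100 µM (final, 0.5% DMSO). Ca2+ flux was recorded on a FLIPR Tetra (8 frames/s, 100 s) before and after exposure. Donor-specific points of departure came from hierarchical Bayesian Hill fits to vehicle-normalised beat frequency, decay-to-rise ratio or peak frequency. Thresholds were 5% change, or 95% loss for peak frequency.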
# 1516 [6] = assay: POD (EC05) for increase in Ca2+ transient decay-to-rise ratio (QT prolongation) vs vehicle; higher = less potent (higher point of departure)
# In short: as §2
# 1518 [7] = assay: as above
# In short: as §2
# 1531 [8] = assay: as above
# In short: as §2
Compound,POD vs vehicle 1083 [µM],POD vs vehicle 1118 [µM],POD vs vehicle 11235 [µM],POD vs vehicle 1309 [µM],POD vs vehicle 1368 [µM],POD vs vehicle 1392 [µM],POD vs vehicle 1434 [µM],POD vs vehicle 1516 [1] [µM],POD vs vehicle 1518 [2] [µM],POD vs vehicle 1531 [3] [µM],POD vs vehicle 1535 [µM],POD vs vehicle 1565 [µM],POD vs vehicle 20032 [µM],POD vs vehicle 20084 [µM],POD vs vehicle 30145 [4] [µM],POD vs vehicle 30171 [µM],POD vs vehicle 30145 [5] [µM],POD vs vehicle 1516 [6] [µM],POD vs vehicle 1518 [7] [µM],POD vs vehicle 1531 [8] [µM]
O=C(O)C=CC(F)(C(F)(F)F)C(F)(F)F [3-(Perfluoroisopropyl)-2-propenoic_acid],> 100,> 100,> 100,> 100,> 100,> 100,> 100,> 100,> 100,> 100,> 100,> 100,> 100,> 100,> 100,> 100,> 100,> 100,> 100,> 100
O=C(O)C(F)(F)C(F)(F)C(F)(F)C(F)(F)C(F)(F)C(F)(F)C(F)(F)C(F)(F)Cl [9-Chloro-perfluorononanoic_acid],> 100,13.1,2.23,84.3,> 100,> 100,10.9,14.9,> 100,> 100,39.9,> 100,44.8,> 100,> 100,6.24,> 100,> 100,> 100,> 100
"O=C(O)CCC(F)(F)C(F)(F)C(F)(F)C(F)(F)C(F)(F)F [2H,2H,3H,3H-Perfluorooctanoic_acid]",39.6,20,16.9,37.7,> 100,20.4,23.8,21.1,> 100,24.9,75.1,> 100,29.8,20,22.2,21.8,> 100,43.9,> 100,17
O=C(O)C(F)(F)C(F)(F)C(F)(F)C(F)(F)C(F)(F)C(F)(F)C(F)(F)F [Perfluorooctanoic_acid],> 100,7.02,5.14,11.1,> 100,> 100,26.1,9,92.7,49,41.8,> 100,51.5,> 100,> 100,7.04,> 100,> 100,> 100,> 100
O=S(=O)(O)C(F)(F)C(F)(F)C(F)(F)C(F)(F)F [Perfluorobutanesulfonic_acid],> 100,> 100,41.4,> 100,> 100,> 100,> 100,29.7,> 100,> 100,> 100,> 100,> 100,> 100,> 100,73.6,,39.7,> 100,> 100
"O=C(O)C=C(C(F)(F)F)C(F)(F)F [3,3-Bis(trifluoromethyl)-2-propenoic_acid]",> 100,> 100,> 100,> 100,> 100,> 100,> 100,> 100,> 100,> 100,> 100,> 100,> 100,> 100,> 100,> 100,> 100,> 100,> 100,> 100
NS(=O)(=O)C(F)(F)C(F)(F)C(F)(F)C(F)(F)C(F)(F)C(F)(F)F [Perfluorohexanesulfonamide],25.7,1.33,0.693,14.7,> 100,91.8,9.37,14.3,32.8,6.44,12.6,92,13.4,54.4,34.9,7.7,> 100,> 100,> 100,> 100
"OCC(O)CC(F)(F)C(F)(F)C(F)(F)C(F)(F)C(F)(F)C(F)(F)C(F)(F)C(F)(F)F (configuration not stated) [1-(Perfluorofluorooctyl)propane-2,3-diol]",24.4,0.258,> 100,> 100,> 100,> 100,> 100,> 100,> 100,> 100,> 100,> 100,> 100,> 100,> 100,> 100,> 100,> 100,> 100,> 100
O=C(O)C(F)(F)C(F)(F)F [Perfluoropropanoic_acid],> 100,> 100,> 100,> 100,> 100,> 100,> 100,> 100,> 100,> 100,> 100,> 100,> 100,> 100,> 100,> 100,> 100,> 100,> 100,0.307
O=C(O)CCC(F)(F)C(F)(F)C(F)(F)F [3:3 Fluorotelomer carboxylic acid],> 100,> 100,> 100,> 100,> 100,> 100,> 100,> 100,> 100,> 100,> 100,> 100,> 100,> 100,> 100,> 100,> 100,,,> 100
